Assay results taken from PubChem BioAssay (NCI).
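Cultured in 96-well plates, cells were exposed to test compound for 48 hours across five concentrations. GI50 marks 50% less growth. TGI is the concentration that stops growth completely.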

test system: HCC-2998 colon; test: NCI-60 cell line screen, 48 h

| Structure (SMILES) | TGI [µM] |
| --- | --- |
| CC(=O)c1c2c(c3ccccc3c1O)O[C@@H]1OCC[C@H]21 | > 100 |
| C(=C(c1ccc(OC2CCCCO2)cc1)c1ccc(OC2CCCCO2)cc1)c1ccccc1 (stereo not drawn) | 1.97 |
| CC(=O)Oc1cccc2c1C(=O)CCCC2 | > 100 |
| CCN(CC)C(=S)N/N=C/c1cc([N+](=O)[O-])ccc1O | 40.3 |
| Cc1ccc(NC(=O)c2ccc(OP(=O)(O)Nc3ccc(C)cc3)cc2)cc1 | > 100 |
| Cc1ccccc1C(=N)c1ccccc1Cc1cccc2ccccc12 | 36.7 |
| CCC(=O)NC(Nc1cc(C)on1)(C(F)(F)F)C(F)(F)F | > 100 |
| COc1ccc(-c2[nH]c3c4c(nc5c(c24)C(=O)CC(C)(C)C5)CC(C)(C)C3)cc1 | > 100 |
| CCC(=O)NCC1CCCN2CCCCC12 (stereo not drawn) | > 100 |
| Cc1ccccc1OC(C)C(=O)NN1C(=O)CSC1c1ccccc1 (stereo not drawn) | > 100 |
| Nc1nc(-c2ccccc2)nc2oc(-c3cccs3)nc12 | > 100 |
| CC(C)=CCC[C@@H](C)c1c(O)c(O)c(C)c2nccnc12 | > 96.6 |
| Cn1c(=O)c2c(nc3n2CC(C(=O)O)N3)n(C)c1=O (stereo not drawn) | > 100 |
| Cc1ccc(-c2cc(-c3ccco3)c(C#N)c(=S)n2C2OC(CO)C(O)C(O)C2O)cc1 (stereo not drawn) | > 100 |
| Cc1oc2c(cc(O)c3cc(O)ccc32)c2cccc1-2 | > 100 |
| NC(N)=Nc1ccc(CC(N)NCC(=O)O)cc1 (stereo not drawn) | > 25 |
| COC(=O)C1=C(C(=O)OC)SC(=C2SCSC3=C2SC(C(=O)OC)=C(C(=O)OC)C32SC3=C(CCCC3)S2)S1 | > 100 |
| COc1nncc2[nH]c(-c3ccccc3)cc12 | > 100 |
| COc1ccc(-n2c(C)nc3ccc(NC(=S)Nc4ccccc4)cc3c2=O)cc1 | > 100 |
| O=S(=O)(c1ccccc1)c1cccc2c1NCCC2 | > 100 |
| COP(=O)(OC)C1=c2c(C)noc2=C2C=COC2C1=O (stereo not drawn) | > 100 |

test system: K-562 leukemia; test: NCI-60 cell line screen, 48 h

| Structure (SMILES) | TGI [µM] | GI50 [µM] |
| --- | --- | --- |
| CCOC(=O)c1c(CN2CCCC2)n(-c2ccccc2)c2cc(Br)c(O)cc12 | 41.2 |  |
| O=C1c2cc3c(cc2-c2c1c1ccc(F)cc1c(=O)n2C[C@H](O)[C@@H](O)[C@H](O)CO)OCO3 | > 100 | 0.0645 |
| Nn1c(Nc2ccc(S(=O)(=O)Nc3ncccn3)cc2)nnc(/C=C/c2c(O)ccc3ccccc23)c1=O | > 100 |  |
| Cc1cc(-c2nc3ccc(F)cc3s2)ccc1NC(=O)[C@H](C)N | 4.7 |  |
| NS(=O)(=O)c1nnc(NC(=O)Nc2ccc(Cl)c(Cl)c2)s1 | > 100 |  |
| O=[N+]([O-])c1cc(C=NC23CC4CC(CC(C4)C2)C3)ccc1Cl | > 43.6 |  |
| CCCCCC1=CC(=O)C1(Cl)Cl | 19.8 |  |
| CC(=O)N(C(=O)CC(=O)N1N=C(c2ccccc2)C(N=Nc2ccccc2[N+](=O)[O-])C1=O)c1ccc(Cl)cc1 (stereo not drawn) | > 10 |  |
| Oc1ccccc1CNCc1nc2ccccc2[nH]1 | > 100 |  |
| COc1ncc(/C=C2\OC(=O)c3ccccc32)c(OC)n1 | > 100 |  |
| CC(=O)Nn1c(=S)[nH]c2ccccc21 | > 100 |  |
| C[C@]12CCC3C4=C(CCC3C1CCC2=O)C(=O)[C@H]1O[C@H]1C4=O (stereo partly drawn) | 6.87 |  |
| CCCCOC(=O)Nc1ccc(S(=O)(=O)Nc2ccccc2Cl)cc1 | 43.1 |  |
| CC(C)c1cc2c(cc1S(=O)(=O)O)[C@@]1(C)CCC[C@@](C)(C(=O)O)C1CC2 (stereo partly drawn) | > 100 |  |
| N#CC(Cc1ccccc1)N(CCC1=CCCCC1)C(c1ccccc1)c1ccccc1 (stereo not drawn) | > 100 |  |
| C/C(=C\CBr)CCC(Br)C(C)(C)Br (stereo not drawn) | > 100 |  |
| [N-]=[N+]=NC(c1ccccc1)(c1ccccc1)c1ccccc1 | 42.5 |  |
| CC(=O)c1c2c(c3ccccc3c1O)O[C@@H]1OCC[C@H]21 | > 100 |  |
| C(=C(c1ccc(OC2CCCCO2)cc1)c1ccc(OC2CCCCO2)cc1)c1ccccc1 (stereo not drawn) | 2.01 |  |
| C[C@]12CC[C@H](O)CC1=CC[C@@H]1[C@@H]2CC[C@]2(C)C(=N/N)/C(=N\O)C[C@@H]12 | > 100 |  |
| CC(=O)Oc1cccc2c1C(=O)CCCC2 | > 100 |  |

| Structure (SMILES) | TGI [µM] | GI50 [µM] |
| --- | --- | --- |
| CCN(CC)C(=S)N/N=C/c1cc([N+](=O)[O-])ccc1O | 18.1 |  |
| Cc1ccc(NC(=O)c2ccc(OP(=O)(O)Nc3ccc(C)cc3)cc2)cc1 | > 100 |  |
| Cc1ccnc(NS(=O)(=O)c2ccc(N=[N+]=[N-])cc2)n1 | > 100 |  |
| Cc1ccccc1C(=N)c1ccccc1Cc1cccc2ccccc12 | > 100 |  |
| CCC(=O)NC(Nc1cc(C)on1)(C(F)(F)F)C(F)(F)F | > 100 |  |
| COc1ccc(-c2[nH]c3c4c(nc5c(c24)C(=O)CC(C)(C)C5)CC(C)(C)C3)cc1 | > 100 |  |
| CCC(=O)NCC1CCCN2CCCCC12 (stereo not drawn) | > 100 |  |
| Cc1ccccc1OC(C)C(=O)NN1C(=O)CSC1c1ccccc1 (stereo not drawn) | > 100 |  |
| Cc1ccc(N(Cc2ccccc2)Cc2ccccc2)cc1 | > 100 |  |
| Nc1nc(-c2ccccc2)nc2oc(-c3cccs3)nc12 | > 100 |  |
| CC(C)=CCC[C@@H](C)c1c(O)c(O)c(C)c2nccnc12 | > 66.6 |  |
| O=c1[nH]c(=S)[nH]c2c1C(c1ccc([N+](=O)[O-])cc1)c1c([nH]c(=S)[nH]c1=O)O2 | > 100 |  |
| Cn1c(=O)c2c(nc3n2CC(C(=O)O)N3)n(C)c1=O (stereo not drawn) | > 100 |  |
| Cc1ccc(-c2cc(-c3ccco3)c(C#N)c(=S)n2C2OC(CO)C(O)C(O)C2O)cc1 (stereo not drawn) | > 100 |  |
| Cc1oc2c(cc(O)c3cc(O)ccc32)c2cccc1-2 | > 100 |  |
| NC(N)=Nc1ccc(CC(N)NCC(=O)O)cc1 (stereo not drawn) | > 25 |  |
| COC(=O)C1=C(C(=O)OC)SC(=C2SCSC3=C2SC(C(=O)OC)=C(C(=O)OC)C32SC3=C(CCCC3)S2)S1 | > 100 |  |
| COc1nncc2[nH]c(-c3ccccc3)cc12 | > 100 |  |
| COc1ccc(-n2c(C)nc3ccc(NC(=S)Nc4ccccc4)cc3c2=O)cc1 | > 100 |  |
| O=S(=O)(c1ccccc1)c1cccc2c1NCCC2 | > 100 |  |
| COP(=O)(OC)C1=c2c(C)noc2=C2C=COC2C1=O (stereo not drawn) | > 100 |  |

test system: MCF7 breast; test: NCI-60 cell line screen, 48 h

| Structure (SMILES) | TGI [µM] | GI50 [µM] |
| --- | --- | --- |
| CCOC(=O)c1c(CN2CCCC2)n(-c2ccccc2)c2cc(Br)c(O)cc12 | 39.5 |  |
| O=C1c2cc3c(cc2-c2c1c1ccc(F)cc1c(=O)n2C[C@H](O)[C@@H](O)[C@H](O)CO)OCO3 | 0.151 | 0.0119 |
| Nn1c(Nc2ccc(S(=O)(=O)Nc3ncccn3)cc2)nnc(/C=C/c2c(O)ccc3ccccc23)c1=O | 60.3 |  |
| Cc1cc(-c2nc3ccc(F)cc3s2)ccc1NC(=O)[C@H](C)N | 13.1 |  |
| Cc1cc(Nc2ccc(S(=O)(=O)O)c3cc(S(=O)(=O)O)cc(S(=O)(=O)O)c23)c2ccccc2n1 | > 100 |  |
| NS(=O)(=O)c1nnc(NC(=O)Nc2ccc(Cl)c(Cl)c2)s1 | 88.3 |  |
| O=[N+]([O-])c1cc(C=NC23CC4CC(CC(C4)C2)C3)ccc1Cl | 27.9 |  |
| CCCCCC1=CC(=O)C1(Cl)Cl | 31.6 |  |
| CC(=O)N(C(=O)CC(=O)N1N=C(c2ccccc2)C(N=Nc2ccccc2[N+](=O)[O-])C1=O)c1ccc(Cl)cc1 (stereo not drawn) | > 10 |  |
| Oc1ccccc1CNCc1nc2ccccc2[nH]1 | > 100 |  |
| COc1ncc(/C=C2\OC(=O)c3ccccc32)c(OC)n1 | > 100 |  |
| CC(=O)Nn1c(=S)[nH]c2ccccc21 | > 100 |  |
| C[C@]12CCC3C4=C(CCC3C1CCC2=O)C(=O)[C@H]1O[C@H]1C4=O (stereo partly drawn) | 4.14 |  |
| CCCCOC(=O)Nc1ccc(S(=O)(=O)Nc2ccccc2Cl)cc1 | 42.1 |  |
| CC(C)c1cc2c(cc1S(=O)(=O)O)[C@@]1(C)CCC[C@@](C)(C(=O)O)C1CC2 (stereo partly drawn) | > 100 |  |
| N#CC(Cc1ccccc1)N(CCC1=CCCCC1)C(c1ccccc1)c1ccccc1 (stereo not drawn) | > 100 |  |
| C/C(=C\CBr)CCC(Br)C(C)(C)Br (stereo not drawn) | > 100 |  |
| [N-]=[N+]=NC(c1ccccc1)(c1ccccc1)c1ccccc1 | 35.7 |  |
| CC(=O)c1c2c(c3ccccc3c1O)O[C@@H]1OCC[C@H]21 | > 100 |  |
| C(=C(c1ccc(OC2CCCCO2)cc1)c1ccc(OC2CCCCO2)cc1)c1ccccc1 (stereo not drawn) | 1.43 |  |
| C[C@]12CC[C@H](O)CC1=CC[C@@H]1[C@@H]2CC[C@]2(C)C(=N/N)/C(=N\O)C[C@@H]12 | > 100 |  |
| CC(=O)Oc1cccc2c1C(=O)CCCC2 | > 100 |  |

| Structure (SMILES) | TGI [µM] | GI50 [µM] |
| --- | --- | --- |
| CCN(CC)C(=S)N/N=C/c1cc([N+](=O)[O-])ccc1O | 7.05 |  |
| Cc1ccc(NC(=O)c2ccc(OP(=O)(O)Nc3ccc(C)cc3)cc2)cc1 | > 100 |  |
| Cc1ccnc(NS(=O)(=O)c2ccc(N=[N+]=[N-])cc2)n1 | > 100 |  |
| Cc1ccccc1C(=N)c1ccccc1Cc1cccc2ccccc12 | 48.6 |  |
| CCC(=O)NC(Nc1cc(C)on1)(C(F)(F)F)C(F)(F)F | > 100 |  |
| COc1ccc(-c2[nH]c3c4c(nc5c(c24)C(=O)CC(C)(C)C5)CC(C)(C)C3)cc1 | > 100 |  |
| CCC(=O)NCC1CCCN2CCCCC12 (stereo not drawn) | > 100 |  |
| Cc1ccccc1OC(C)C(=O)NN1C(=O)CSC1c1ccccc1 (stereo not drawn) | > 100 |  |
| Cc1ccc(N(Cc2ccccc2)Cc2ccccc2)cc1 | > 100 |  |
| Nc1nc(-c2ccccc2)nc2oc(-c3cccs3)nc12 | > 100 |  |
| CC(C)=CCC[C@@H](C)c1c(O)c(O)c(C)c2nccnc12 | > 100 |  |
| O=c1[nH]c(=S)[nH]c2c1C(c1ccc([N+](=O)[O-])cc1)c1c([nH]c(=S)[nH]c1=O)O2 | > 100 |  |
| Cn1c(=O)c2c(nc3n2CC(C(=O)O)N3)n(C)c1=O (stereo not drawn) | > 100 |  |
| Cc1ccc(-c2cc(-c3ccco3)c(C#N)c(=S)n2C2OC(CO)C(O)C(O)C2O)cc1 (stereo not drawn) | > 100 |  |
| Cc1oc2c(cc(O)c3cc(O)ccc32)c2cccc1-2 | > 100 |  |
| NC(N)=Nc1ccc(CC(N)NCC(=O)O)cc1 (stereo not drawn) | > 25 |  |
| COC(=O)C1=C(C(=O)OC)SC(=C2SCSC3=C2SC(C(=O)OC)=C(C(=O)OC)C32SC3=C(CCCC3)S2)S1 | > 100 |  |
| COc1nncc2[nH]c(-c3ccccc3)cc12 | > 100 |  |
| COc1ccc(-n2c(C)nc3ccc(NC(=S)Nc4ccccc4)cc3c2=O)cc1 | > 100 |  |
| O=S(=O)(c1ccccc1)c1cccc2c1NCCC2 | > 100 |  |
| COP(=O)(OC)C1=c2c(C)noc2=C2C=COC2C1=O (stereo not drawn) | > 100 |  |
